This is an account of results in PubChem BioAssay AID463074 (Broad Institute, 2010).

Usually AC50 stands for the concentration at which the activity in the assay is half-maximal.

Activity calls are given as the source filed them.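 The calls were made as follows: active = AC50 no more than tenfold above the top dose tested, or full inhibition at every dose with a flat fit (cut at about 19 µM in these data); inconclusive = flat curve fit with inhibition between 30% and 70%, or poor fit; inactive = AC50 more than tenfold above the top dose tested.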 Some results are limits rather than exact numbers.

The subject of the test is HMLE_sh_eGFP viability, CellTiter-Glo luminescence, 72 h. The test can be described thus: viability loss of HMLE_sh_eGFP cells – cell-based, luminescence, counter-screen for HMLE_sh_ECad selective toxicity project, dose response (AID 463074;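 also: counterscreen control line to flag general toxicity for the HMLE_sh_ECad screen; potency for loss of viability as luminescence drops below DMSO wells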). (A counterscreen serves to expose hits that act by an unwanted route or on another target.)
Consider `O=C(NNc1ccc(Cl)cc1)c1cccs1`, for which the AC50 is 1.58 µM. In the case of `C=C(C(=O)c1ccccc1)C(C)C(=C)C(=O)c1ccccc1`, the AC50 was 1.85 µM. `Cc1ccc(NC(=O)/C=C/c2ccc([N+](=O)[O-])s2)c(C)c1`: the AC50 was 2.3 µM. For the compound `Cn1nnnc1Sc1ncnc2scc(-c3cc4ccccc4o3)c12`, the AC50 was 1.17 µM.

As to `O=C(CSc1ncnc2nc[nH]c12)c1ccc(Cl)cc1`, the AC50 was 6.23 µM. Next, `Cc1ccc(NS(=O)(=O)c2cc3c4c(cccc4c2)C(=O)NC3=O)cc1C`: 6.49 µM; `COc1cc(C[C@H](C)[C@H](C)Cc2ccc3c(c2)OCO3)ccc1O`: 6.66 µM; `CCCCCCSc1cc(-c2nc3cnccn3c2NCCCC)ccc1OC`: 6.71 µM. Next, `OC(CNCC1CCCO1)Cn1c2ccc(Cl)cc2c2cc(Cl)ccc21` (stereo not given): 7.38 µM. Take `FC(F)Oc1ccc(-c2csc(NNC3=NCCCCC3)n2)cc1`: the AC50 was 3.28 µM. Take `Cc1cc(/C=C2\SC(=S)N(Cc3ccco3)C2=O)c(C)n1-c1ccccc1`: the AC50 was 2.92 µM. Turning to `CC[C@@H]1CC=C[C@H]2[C@H]1C(=O)N(Cc1ccccc1)[C@H]2c1ccc(OC)c(Cl)c1`, the AC50 was 7.13 µM. As for `O=C(CSC1=NNC(c2ccccn2)S1)Nc1ccc(C(F)(F)F)cc1` (stereo not given), the AC50 is 4.27 µM. With `Cc1cccc(NC(=O)c2nc[nH]c2C(=O)NCCCNC(=O)c2[nH]cnc2C(=O)Nc2cccc(C)c2)c1`, the AC50 was 6.71 µM.

Consider `O=C(N/N=C(\Cc1ncc[nH]1)c1ccccc1)c1ccncc1`, for which the AC50 was 3.85 µM.

As to `Cc1c(O)cc2c(c1O)C(=O)CC(c1ccccc1)O2` (stereo not given), the AC50 was 15.2 µM. Regarding `Cc1ccc(S(=O)(=O)Nc2ccc(NC(=O)Nc3cccc(C(F)(F)F)c3)cc2)cc1`, the AC50 is 2.51 µM. Next, `CC1(C)CN(c2ccccc2)N(C(=O)c2ccc(F)cc2)C1=O`: 5.6 µM. Consider `CCc1cc2ccc(C)cc2nc1SCC(=O)c1ccc(NC(C)=O)cc1`, for which the AC50 is 9.7 µM.

For `Cc1cccc(N2CCN(C(=S)Nc3ccc4nc(N5CCN(C)CC5)cc(C)c4c3)CC2C)c1` (stereo not given), the AC50 is 7.35 µM. As for `Cc1ccc(S(=O)(=O)c2c(C)nn(C(C)(C)C)c2OC(=O)c2ccc(Br)o2)cc1`, the AC50 is 2.64 µM. On to `OC(CNCCc1ccc(C(F)(F)F)cc1)COc1ccc2ccccc2c1` (stereo not given), for which the AC50 is 4.98 µM.

Consider `Cc1cc(C(=O)NNc2ccc(F)cc2F)no1`, for which the AC50 is 1.6 µM. Next, `CC(C)(C)OC(=O)N1CCC(NC(=O)c2[nH]cnc2C(=O)Nc2ccc(Cl)cc2)CC1`: 5.94 µM.

Regarding `COC(=O)c1cc(=O)n(Cc2cccs2)c(=Nc2ccccc2)s1`, the AC50 is 4.57 µM. On to `CCN(CC)CCCNC(=S)N1CCN(c2nc(-c3ccccc3)cs2)CC1`, for which the AC50 was 5.65 µM. Next, `O=C(N/N=C/c1ccc(OC2CSC2)cc1)c1ccccc1`: 2.85 µM; `Cc1[nH]c2ccccc2c1/C=N/NC(=O)C1CC1(c1ccccc1)c1ccccc1` (stereo not given): 6.08 µM; `Cc1cccc(-c2oc3ccccc3c2C#CCCO)c1`: 10.1 µM. In the case of `Cc1cccc(OCCNc2cc(N3CCN(C)CC3)ccc2[N+](=O)[O-])c1`, the AC50 was 5.34 µM. Take `O=C1C2C3C=CC(C4CC34)C2C(=O)N1/N=C/c1ccc(-c2ccc(F)cc2[N+](=O)[O-])o1` (stereo not given): the AC50 is 1.21 µM.

Regarding `O=C(Nc1cccc(-c2csc(Nc3cccc(C(F)(F)F)c3)n2)c1)c1ccccc1`, the AC50 was 3.42 µM. Next, `O=C(Nc1ccc(OCC(F)(F)C(F)F)c(C(F)(F)F)c1)c1ccc(Cl)cc1`: 3.19 µM; `CN(CCO)c1cc(Sc2nc3ccccc3s2)c2nonc2c1[N+](=O)[O-]`: 2.49 µM.

For `COc1ccc(-c2nn(-c3ccccc3)cc2/C=N/N2C(=O)CSC2=S)cc1`, the AC50 was 3.97 µM.

For the compound `COc1ccc2c(c1)CCc1c(C(=O)N3CC4(C)CC3CC(C)(C)C4)noc1-2` (stereo not given), the AC50 is < 0.16 µM. For the compound `COc1ccc(-c2sc3ccccc3c2-c2ccc(O)cc2)cc1`, the AC50 is 6.43 µM. Next, `CCCN(CCC)CCNC(=O)c1cc2c(-c3ccc(Cl)cc3)nn(C)c2s1`: 5.1 µM; `O=S(=O)(Nc1ccc(O)c2ccccc12)c1ccc(OC(F)(F)F)cc1`: 12.5 µM; `O=C1/C(=C\c2cc(Br)cc(Br)c2O)SC(=S)N1Cc1ccccc1`: 0.906 µM. Consider `NCC(c1ccc(Cl)cc1Cl)c1c[nH]c2ccccc12` (stereo not given), for which the AC50 was 11.9 µM. As to `COc1cc2c(cc1NC(=O)c1cccc(S(=O)(=O)N(C)C)c1)oc1ccccc12`, the AC50 is 3.52 µM. Regarding `COc1ccc(-c2sc3ccccc3c2C#CC2(O)CCCCC2)cc1`, the AC50 was 5.38 µM. For `CCCCCc1ccc(OCCCC[n+]2cccc(C)c2)c(CCCCC)c1`, the AC50 was 7.42 µM. `OCCCNc1cc(-c2ccccc2)nc2cc(-c3ccc(F)cc3)nn12`: the AC50 is 9.12 µM. Regarding `CC(C)C[C@H](NC(=O)c1nc[nH]c1C(=O)NC(c1ccccc1)c1ccccc1)C(=O)OC(C)(C)C`, the AC50 is 3.67 µM.

Regarding `C/C(NC(=O)c1cccc(F)c1)=C1/C(=O)C[C@@H]2[C@H]1C2(C)C`, the AC50 is 2.13 µM. On to `COc1cccc(-c2sc3ccc(OC)cc3c2-c2ccc(O)cc2)c1`, for which the AC50 was 3.7 µM. `CC1(C)CN(c2ccccc2)N(C(=O)c2ccc(C#N)cc2)C1=O`: the AC50 was 4.31 µM.

On to `CC(C)(C)c1ccc(Oc2ccc(NC(=O)c3cccs3)cn2)cc1`, for which the AC50 was 2.88 µM.

For the compound `O=[N+]([O-])c1cccc(C2NCC(c3ccccc3Cl)c3c2[nH]c2ccccc32)c1` (stereo not given), the AC50 is 6.75 µM.

On to `Oc1ccccc1/C=N/NP(=S)(c1ccccc1)c1ccccc1`, for which the AC50 was 6.98 µM. Regarding `CCCCOc1ccc(S(=O)(=O)N2CCN(c3ccc(N4CCN(CC)CC4)nn3)CC2)cc1`, the concentration at half-maximal activity (AC50) is 0.46 µM. Next, `O=C(Cc1ccccc1)Nc1cccc(NC(=O)c2ccccc2)c1`: 9.89 µM. Next, `CC1=C(C(=O)OC2CCCCCCC2)C(c2cc3c(cc2Br)OCO3)CC(=O)N1` (stereo not given): 2.57 µM; `COc1ccc(N/N=C(/C(C)=O)N2CCCc3ccccc32)cc1`: 13.2 µM.

As to `Cc1cccc(-n2ncc3c(N4CCCc5ccccc54)ncnc32)c1`, the AC50 is 7.68 µM. `COc1ccc(/C=N/N(c2ccccc2)c2ccccc2)cc1O`: the AC50 is 7.09 µM. Next, `CCc1ccc2[nH]c3nc(N/N=C/c4cccc(O)c4)nnc3c2c1`: < 0.16 µM. Turning to `CCN1C(=O)C(CC(=O)Nc2ccc(OC)cc2)N(CCCN2CCN(c3ccc(F)cc3)CC2)C1=S` (stereo not given), the AC50 was 7.04 µM.

As to `COc1ccc(C2=NN(C(=O)COC(=O)c3ccc(S(C)(=O)=O)c([N+](=O)[O-])c3)C(c3ccco3)C2)cc1` (stereo not given), the half-maximal activity concentration (AC50) was 3.84 µM. Take `COc1cc(-c2noc(C)c2/C=C/c2ccc(OC(C)=O)cc2)cc(OC)c1OC`: the AC50 is 0.292 µM. Next, `CN1CCN(CCCNC(=O)c2ccc(/C=C3\Oc4ccccc4N(Cc4ccc(Cl)cc4)C3=O)cc2)CC1`: 3.31 µM; `Cc1nc2c3cc(F)ccc3n(Cc3ccccc3)c2s1`: 0.825 µM; `COc1ccc2sc(-c3ccc(SC)cc3)c(C#CCO)c2c1`: 8.45 µM. With `Cc1cc(C)cc(N2C(=O)NC(=O)/C(=C/c3cccn3-c3ccc(Cl)cc3)C2=O)c1`, the AC50 is 2.84 µM. In the case of `C=CCc1cccc(CNc2nc3ccccc3n2CCC)c1O`, the AC50 is 13.5 µM.

Consider `CCOC(=O)N1C(=O)[C@@](c2ccc(Cl)cc2)(C(C)C)N1C(=O)OCC`, for which the AC50 was 7.14 µM.

`O=C(/C=C/c1ccccc1)NNc1ccc(Cl)cc1`: the AC50 is 12 µM.

In the case of `Cc1cccc(C)c1NS(=O)(=O)c1ccc(NC(=O)c2ccc(Cl)c([N+](=O)[O-])c2)cc1`, the concentration at half-maximal activity (AC50) was 3.66 µM. As for `COc1ccc(C(=O)/C=C2/C(=O)Nc3ccccc32)c(OC)c1`, the AC50 was 6.75 µM. On to `CCC(CO)Oc1cc(NCc2ccc(Cl)cc2Cl)c2ncn(C(C)C)c2c1` (stereo not given), for which the concentration at half-maximal activity (AC50) is 7.64 µM. As for `CC1CCCN(c2ccc(C(=O)N3CCC4(CC3)OCCO4)cc2[N+](=O)[O-])C1` (stereo not given), the AC50 is 7.96 µM. As for `O=[N+]([O-])c1ccc(N2N=C(c3ccccc3)CC2c2ccccc2O)cc1` (stereo not given), the AC50 is 2.51 µM.

For `COc1cc2sc(-c3ccccc3OC)c(-c3ccc(O)cc3)c2cc1OC`, the AC50 was 5.22 µM. In the case of `O=C(/C(=C/c1cccc(Cl)c1)c1nc2ccccc2[nH]1)c1ccccc1`, the AC50 is 3.35 µM. For the compound `Cc1nnc2sc(SCc3cccc(Cl)c3)nn2c1=O`, the AC50 is > 19.5 µM (inactive). Next, `O=C(/C(N=Nc1cccc(C(F)(F)F)c1)=C(/O)c1cccs1)C(F)(F)F`: 2.17 µM. `S=c1[nH]nc(C2CCCCC2)n1/N=C/C(Cl)=C\c1ccccc1`: the AC50 was 8.35 µM. For `O=C(Nc1cccc(Cl)c1N1CCCCC1)c1ccc2c(c1)OCCO2`, the AC50 was 11.4 µM. Next, `COc1ccc(C(C)NCCC(c2ccc(OC(C)C)cc2)c2ccccc2OC)cc1` (stereo not given): 5.44 µM; `O=C(Nc1ccc(OC(F)F)c(Cl)c1)Nc1ccc2c(c1)OCO2`: 3.14 µM. In the case of `CC(C)CC(=O)c1c(O)c(C=O)c(O)c2c1O[C@@]1(C)[C@@H](C2)C[C@H]2C[C@@H]1C2(C)C`, the AC50 is 6.32 µM. Next, `CCc1ccc(CNC(=O)C2CCN(c3nnc(C)c4c(C)n(-c5ccc(C)cc5)nc34)CC2)cc1`: 4.14 µM; `Nc1nc(Nc2ccccc2)nc(NC2CCCCC2)c1[N+](=O)[O-]`: 6.81 µM; `O=C(COC(=O)/C=C/C(=O)OCC(=O)Nc1ccccc1F)Nc1ccccc1F`: 9.61 µM. Next, `Cc1ccc2nc(N(CCCN(C)C)C(=O)c3cc(-c4cccs4)nc4ccccc34)sc2c1`: 6.4 µM; `COc1ccc(-c2oc3ccc(N4CCOCC4)cc3c2C#CCO)cc1`: 10.4 µM.

In the case of `COc1ccc(-c2cn[nH]c2-c2ccc(OCc3ccccc3)cc2O)cc1`, the AC50 was 7.02 µM. Regarding `CCCCCCSc1cc(-c2nc3cc(C)ccn3c2NCCCC)ccc1OC`, the AC50 was 8.88 µM.

As for `Cc1ccc(COc2ccccc2-c2cc(C(=O)N/N=C/c3cccnc3)[nH]n2)cc1`, the AC50 is 12.6 µM. Consider `O=S(=O)(c1ccccc1)N(CC(O)Cn1c2ccccc2c2ccccc21)c1ccccc1` (stereo not given), for which the AC50 is 6.55 µM.

Turning to `CC1S/C(=N/N=C/c2cccc([N+](=O)[O-])c2)NC1=O` (stereo not given), the AC50 is 3.48 µM. Take `N#CCc1ccc(NC(=O)Nc2cccc(Cl)c2)cc1`: the AC50 was 20 µM. Turning to `CCOC(=O)c1c(NC(=O)C2COc3ccccc3O2)sc2c1CC(C)(C)NC2(C)C` (stereo not given), the AC50 is 9.86 µM.
